Drawing on patent US6780995B2, “Activated iododerivatives for the treatment of cancer and aids” (Isotechnika Inc., priority 1997, dated 2004), this text covers IC50 for two compounds.

In the first experiment the test system is RPMI 8226 cells. Nature of the experiment: IC50 assay, inhibition of cell proliferation and growth, RPMI 8226. The class given is cell-based. Conditions: Homo sapiens; RPMI 8226 myeloma cell line; read-out: IC50 Concentrations, RPM 18226. As for the experimental part:
(§1) Cell culture: The human cell lines were propagated under sterile conditions in RPMI 1640 (CellGrow) with 10% fetal bovine serum (Hyclone), 2 mM L-glutamine, and sodium bicarbonate (complete medium) and incubated at 37° C. in HEPA-filtered Sterilcult CO2 tissue culture incubators (Forma) with 5% CO^2 and 95% humidity (Table 1). The murine leukemia cell lines were propagated in Dulbecco's MEM media with 10% equine serum (Hyclone), 2 mM L-glutamine, and sodium bicarbonate (complete medium) and incubated as described. The cells were subcultured twice weekly and used in experiments. The culture was screened for mycoplasma contamination using GeneProbe™ (Fisher) and positive cultures were cured of contaminants over three passages using constant treatment with BM-Cyclin™ antibiotic combination (Boehringer Mannheim). Only cultures confirmed as mycoplasma free were used in testing compounds for anticellular activity.
(§2) The test compounds were stored at 4° C. under light protected conditions. The test compounds were weighed and dissolved in DMSO. The dissolved compounds were then serially diluted in warm medium (RPMI 1640 or Dulbecco's MEM) under constant mixing to minimize precipitation. The positive control drug doxorubicin was diluted in water followed by dilution in media to achieve a final concentration of 200 nM.
(§3) For all experiments, the cells were harvested and centrifuged to remove the media, and suspended in fresh completed medium. Samples were taken to determine cell density. The cell count was determined with a Coulter Model Z1 cell counter and viability was measured with propidium iodide staining followed by analysis on a Coulter EPPICS Elite Flow cytometer. The cell samples sere adjusted with complete medium to a density of 5×10^4/mL for adherent cell lines and 1×10^5/mL for suspension lines. Tissue culture cluster plates (96 well, cat. No. 3595 Costar for adherent human lines and cat No. 25850 Corning for murine leukemias) were seeded with 100 μL cells and incubated as described. Replicate groups of plates were set up for each line to accommodate the exposure options for single agents and combinations. For each dilution 8 wells (100 μL samples of cells) were treated with 100 μL of dosing solution one day after plating. Each cluster plate contained a cell control (8 wells, mock-treated with complete medium), a medium control (3 wells with medium used to subtract out signal generated by media conditions), and an air blank (1 well, for calibrating the plate reader).
(§4) Using the procedures described above, concentrations of the Example compounds necessary to inhibit cell proliferation and growth by 50% (1C50 values) were determined in the test cell lines.
Turning to `Cc1csc(NC(=O)c2cc([N+](=O)[O-])ccc2I)n1` [Ref. No. 21, 2-(2′-Iodo-5′-Nitro-Benzamido)-4-Methyl-Thiazole], the IC50 is 3.33 µM.
In the case of `Cc1cnc(NC(=O)c2cc([N+](=O)[O-])ccc2I)s1` [Ref. No. 22, 2(2′-Iodo-5′-Nitro-Benzamido)-5-Methyl-Thiazole], the IC50 turned out to be 12.7 µM.

In another experiment the test system is P388 cells. Description: IC50 assay (XTT), inhibition of cell proliferation and growth, P388. The class given is cell-based. The note with it: Mus musculus; P388 murine leukemia cell line; XTT dye conversion; read-out: IC50 Concentrations, P388. The method, then: as §1, §2, §3
(§5) Anticellular effects of the murine leukemia cell lines were assessed with the XTT dye conversion assay which is more suited to suspension cultures. On the day of analysis XTT[2,3-bis(2-methoxy-4-nitro-5-sulfophenyl)-5-[(phenylamino)carbenyl]-2H-tetrazolium hydroxide, inner salt, sodium salt (Sigma)] was weighed out and dissolved at 1 mg/mL in media. PMS (phenazine methosulfate) was prepared at 5 mM in PBS (phosphate buffered saline) and stored as a stock solution 4° C. The PMS was mixed with dissolved XTT to a final concentration of 0.025 mM. Sample wells were treated with 50 μL of the XTT solution and the plates were incubated for four hours at 37° C. to allow for conversion into the liquid soluble formazan product. After the incubation period the reaction was stopped by adding 10 μL of 10% SDS solution per well and the wells contents of each plate were mixed by agitation. The absorbancy of formazan in each monolayer was measured at 450 nm (620 nm reference beam) on a Denley Anthos 2001 microplate reader. The data were transferred via the ARCOM software capture program into Lotus 1-2-3 for processing.
as §4
(In general: Tetrazolium assays rely on reduction of a dye to a coloured formazan, in cell work by metabolically active cells.)
For the compound `Cc1csc(NC(=O)c2cc([N+](=O)[O-])ccc2I)n1` [Ref. No. 21, 2-(2′-Iodo-5′-Nitro-Benzamido)-4-Methyl-Thiazole], the IC50 turned out to be 3.44 µM.
With `Cc1cnc(NC(=O)c2cc([N+](=O)[O-])ccc2I)s1` [Ref. No. 22, 2(2′-Iodo-5′-Nitro-Benzamido)-5-Methyl-Thiazole], the IC50 came to 3.64 µM.

For a further experiment, the system named is SK-OV-3 cells. Nature of the experiment: IC50 assay, inhibition of cell proliferation and growth, SK-OV-3. The note with it: Homo sapiens; SK-OV-3 ovarian adenocarcinoma cell line; neutral red or crystal violet; read-out: IC50 Concentrations, SK-OV-3. The class given is cell-based, human. As for the experimental part: as §1, §2, §3
(§6) Anticellular effects of the compounds for the adherent cell lines were assessed with neutral red dye. On the day of analysis, the media was removed from sample cell monolayers and replaced with 0.1 mL of neutral red solution (0.5% neutral red, HBSS:RPMI 1640 (1:1), 0.05 M HEPES, pH 7.2). After incubation of the samples at 37° C. for 1 hour the excess dye was removed with blotting and the monolayers were washed twice with 0.85% NaCl solution (0.1 mL per wash). The cell associated dye was extracted by adding 0.2 mL of a 0.1 M NaH2PO4:ethanol (1:1) solution/well followed by incubation for 1 hour at 35° C. The absorbency of neutral red in each monolayer was measured at 550 nm (620 nm reference beam) on a Denley Anthos 2001 microplate reader. The data were transferred via the ARCOM software capture program in Lotus 1-2-3 for processing.
(§7) In assays where technical difficulties due to crystalization of the neutral red occurred the crystal violet staining procedure was employed to measure the amount of cells were left on the plate. Crystal violet staining solution [0.5% crystal violet (w/v), 50% methanol (v/v), 45% saline (v/v), and 5% formalin (v/v)] were prepared on the day of staining. After the media was removed from the sample wells, two drops of crystal violet stain were added to each well and the samples were incubated at ambient temperature for 10 minutes. […]
In the case of `Cc1csc(NC(=O)c2cc([N+](=O)[O-])ccc2I)n1` [Ref. No. 21, 2-(2′-Iodo-5′-Nitro-Benzamido)-4-Methyl-Thiazole], the IC50 is 15.7 µM.
For the compound `Cc1cnc(NC(=O)c2cc([N+](=O)[O-])ccc2I)s1` [Ref. No. 22, 2(2′-Iodo-5′-Nitro-Benzamido)-5-Methyl-Thiazole], the IC50 stood at 16.1 µM.

The next experiment has as its system COLO 205 cells. Description: IC50 assay, inhibition of cell proliferation and growth, COLO 205. The class given is cell-based, human. Conditions: Homo sapiens; COLO 205 colon adenocarcinoma cell line; neutral red or crystal violet; read-out: IC50 Concentrations, COLO 205. As for the experimental part: as §1, §2, §3, §6, §7
For the compound `Cc1csc(NC(=O)c2cc([N+](=O)[O-])ccc2I)n1` [Ref. No. 21, 2-(2′-Iodo-5′-Nitro-Benzamido)-4-Methyl-Thiazole], the IC50 was 5.59 µM.
`Cc1cnc(NC(=O)c2cc([N+](=O)[O-])ccc2I)s1` [Ref. No. 22, 2(2′-Iodo-5′-Nitro-Benzamido)-5-Methyl-Thiazole]: the IC50 was determined as 13.5 µM.

For the next experiment, the system named is M14 cells. Description: IC50 assay, inhibition of cell proliferation and growth, M14. The class given is cell-based, human. The note with it: Homo sapiens; M14 melanoma cell line; neutral red or crystal violet; read-out: IC50 Concentrations, M14. As for the experimental part: as §1, §2, §3, §6, §7
In the case of `Cc1csc(NC(=O)c2cc([N+](=O)[O-])ccc2I)n1` [Ref. No. 21, 2-(2′-Iodo-5′-Nitro-Benzamido)-4-Methyl-Thiazole], the IC50 came to 13.2 µM.
`Cc1cnc(NC(=O)c2cc([N+](=O)[O-])ccc2I)s1` [Ref. No. 22, 2(2′-Iodo-5′-Nitro-Benzamido)-5-Methyl-Thiazole]: the IC50 amounted to 14.5 µM.

The test system of another experiment is A549 cells. Description: IC50 assay, inhibition of cell proliferation and growth, A549. Conditions: Homo sapiens; A549 bronchogenic cell line; neutral red or crystal violet; read-out: IC50 Concentrations, A 549. The class given is cell-based, human. As for the experimental part:
as §1, §2, §3, §6, §7
As to `Cc1csc(NC(=O)c2cc([N+](=O)[O-])ccc2I)n1` [Ref. No. 21, 2-(2′-Iodo-5′-Nitro-Benzamido)-4-Methyl-Thiazole], the IC50 amounted to 43.7 µM.
On to `Cc1cnc(NC(=O)c2cc([N+](=O)[O-])ccc2I)s1` [Ref. No. 22, 2(2′-Iodo-5′-Nitro-Benzamido)-5-Methyl-Thiazole], for which the IC50 came out at 45.2 µM.

A further experiment relates to SK-MEL-5 cells. Description: IC50 assay, inhibition of cell proliferation and growth, SK-MEL-5. The note with it: Homo sapiens; SK-MEL-5 melanoma cell line; neutral red or crystal violet; read-out: IC50 Concentrations, SK MEL-5. The class given is cell-based, human. The method, then: as §1, §2, §3, §6, §7
Consider `Cc1csc(NC(=O)c2cc([N+](=O)[O-])ccc2I)n1` [Ref. No. 21, 2-(2′-Iodo-5′-Nitro-Benzamido)-4-Methyl-Thiazole], for which the IC50 amounted to 15 µM.
Regarding `Cc1cnc(NC(=O)c2cc([N+](=O)[O-])ccc2I)s1` [Ref. No. 22, 2(2′-Iodo-5′-Nitro-Benzamido)-5-Methyl-Thiazole], the IC50 is 15.3 µM.

A further experiment deals with B16 cells. Nature of the experiment: IC50 assay, inhibition of cell proliferation and growth, B16. The note with it: Mus musculus; B16 murine melanoma cell line; neutral red or crystal violet; read-out: IC50 Concentrations, B16. The class given is cell-based. As for the experimental part: as §1, §2, §3, §6, §7
Turning to `Cc1csc(NC(=O)c2cc([N+](=O)[O-])ccc2I)n1` [Ref. No. 21, 2-(2′-Iodo-5′-Nitro-Benzamido)-4-Methyl-Thiazole], the IC50 is 5.13 µM.
Regarding `Cc1cnc(NC(=O)c2cc([N+](=O)[O-])ccc2I)s1` [Ref. No. 22, 2(2′-Iodo-5′-Nitro-Benzamido)-5-Methyl-Thiazole], the IC50 was 6.2 µM.

Another experiment has as its system MCF7 cells. Nature of the experiment: IC50 assay, inhibition of cell proliferation and growth, MCF7. The note with it: Homo sapiens; MCF7 breast adenocarcinoma cell line; neutral red or crystal violet; read-out: IC50 Concentrations, MCF 7. The class given is cell-based, human. The method, then: as §1, §2, §3, §6, §7
As for `Cc1csc(NC(=O)c2cc([N+](=O)[O-])ccc2I)n1` [Ref. No. 21, 2-(2′-Iodo-5′-Nitro-Benzamido)-4-Methyl-Thiazole], the IC50 came to 12.5 µM.
Consider `Cc1cnc(NC(=O)c2cc([N+](=O)[O-])ccc2I)s1` [Ref. No. 22, 2(2′-Iodo-5′-Nitro-Benzamido)-5-Methyl-Thiazole], for which the IC50 amounted to 14.8 µM.

The subject of another experiment is L1210 cells. Description: IC50 assay (XTT), inhibition of cell proliferation and growth, L1210. Conditions: Mus musculus; L1210 murine leukemia cell line; XTT dye conversion; read-out: IC50 Concentrations, L1210. The class given is cell-based. As for the experimental part: as §1, §2, §3, §5, §4
In the case of `Cc1csc(NC(=O)c2cc([N+](=O)[O-])ccc2I)n1` [Ref. No. 21, 2-(2′-Iodo-5′-Nitro-Benzamido)-4-Methyl-Thiazole], the IC50 worked out at 12.8 µM.
On to `Cc1cnc(NC(=O)c2cc([N+](=O)[O-])ccc2I)s1` [Ref. No. 22, 2(2′-Iodo-5′-Nitro-Benzamido)-5-Methyl-Thiazole], for which the IC50 worked out at 12.8 µM.
